The data set in a line: Observations of appearance, structure and phase separation (Centrifuge Test, standing). It is filed as physicochemical. As to conditions: gel structure, phase separation.

Observations data for 1 substance are collected here from patent US20220401331A1, “PERSONAL CLEANSING COMPOSITIONS, METHODS AND USES” (The Procter & Gamble Company, priority 2021, published 2022).

On to “non-ethoxylated sodium tridecyl sulfate [ST0S]”, for which the observations result is listed as “did not form lamellar phase”.
